Test results as given in US4563472A, “Iodoallyl and iodopropargyl substituted tetrazoles and anti-microbial compositions thereof” (Meiji Seika Kaisha, Ltd., priority 1982, dated 1986).
Values after ≈ are worked out from the molar mass of the structure shown. Like-named read-outs stand apart in the source and are kept apart here.

Legend:
[1] = tested on: Trichophyton metagrophytes 530324; assay: Antifungal Activity (in Medicinal Field), MIC; type: cell-based
Candida alubicans GA-24 = assay: Antifungal Activity (in Medicinal Field), MIC; type: cell-based
[2] = tested on: Trichophyton interdigitale; assay: Antifungal Activity (in Medicinal Field), MIC; type: cell-based; conditions: read-out: Minimal Inhibitory Conc. (MIC)
[3] = tested on: Cryptococcus neoformans Cr-1; assay: Antifungal Activity (in Medicinal Field), MIC; type: cell-based; conditions: CR1, read-out: Minimal Inhibitory Conc. (MIC)
[4] = tested on: Aspergillus fumigatus Saito; assay: Antifungal Activity (in Medicinal Field), MIC; type: cell-based; conditions: read-out: Minimal Inhibitory Conc. (MIC)
Mucor spinescens IAM Mu3 = assay: Antifungal Activity (in Industrial Field), MIC; type: cell-based; conditions: IAMMU3, read-out: Minimal Inhibitory Conc. (MIC)
[5] = tested on: Chaetomium globosum ATCC 6205; assay: Antifungal Activity (in Industrial Field), MIC; type: cell-based; conditions: ATCC6205, read-out: Minimal Inhibitory Conc. (MIC)
[6] = tested on: Aspergillus terreus PQMD 82 j; assay: Antifungal Activity (in Industrial Field), MIC; type: cell-based; conditions: PQMD82J, read-out: Minimal Inhibitory Conc. (MIC)
[7] = tested on: Cladosporium herbarum IAM F-517; assay: Antifungal Activity (in Industrial Field), MIC; type: cell-based; conditions: IAMF517, read-out: Minimal Inhibitory Conc. (MIC)
[8] = tested on: Pullularia pullulans IAM F-24; assay: Antifungal Activity (in Industrial Field), MIC; type: cell-based
[9] = tested on: Aspergillus flavus ATCC 6275; assay: Antifungal Activity (in Industrial Field), MIC; type: cell-based; conditions: ATCC6275, read-out: Minimal Inhibitory Conc. (MIC)
[10] = tested on: Trichoderma T-1 ATCC 9645; assay: Antifungal Activity (in Industrial Field), MIC; type: cell-based; conditions: ATCC9645, read-out: Minimal Inhibitory Conc. (MIC)
[11] = tested on: Penicillium luteum ATCC 9644; assay: Antifungal Activity (in Industrial Field), MIC; type: cell-based; conditions: Ascospirella lutea, ATCC9644, read-out: Minimal Inhibitory Conc. (MIC)
[12] = tested on: Rhizopus nigricans S.N. 32; assay: Antifungal Activity (in Industrial Field), MIC; type: cell-based; conditions: Rhizopus stolonifer, read-out: Minimal Inhibitory Conc. (MIC)
[13] = tested on: Aspergillus fumigatus IAM 2621; assay: Antifungal Activity (in Industrial Field), MIC; type: cell-based; conditions: IAM2621, read-out: Minimal Inhibitory Conc. (MIC)
Phricularia oryzae = assay: Antibacterial and Antifungal Activities (in Agricultural Field), MIC; type: cell-based; conditions: read-out: Minimal Inhibitory Conc. (MIC)
[14] = tested on: Colletotrichum lagenarium; assay: as above; type: cell-based; conditions: Colletotrichum orbiculare, read-out: Minimal Inhibitory Conc. (MIC)
[15] = tested on: Fusarium oxysporum f. lycopersici; assay: as above; type: cell-based; conditions: read-out: Minimal Inhibitory Conc. (MIC)
Botrytis cinerea = assay: as above; type: cell-based; conditions: read-out: Minimal Inhibitory Conc. (MIC)
[16] = tested on: Corynebacterium michiganense; assay: as above; type: cell-based; conditions: Clavibacter michiganensis; Corynebacterium michiganense; read-out: Minimal Inhibitory Conc. (MIC)
[17] = tested on: Pseudomonas syringae pv. tabaci; assay: as above; type: cell-based; conditions: read-out: Minimal Inhibitory Conc. (MIC)
Alternaria kikuchiana = assay: as above; type: cell-based; conditions: read-out: Minimal Inhibitory Conc. (MIC)
Diaporithe citri = assay: as above; type: cell-based; conditions: read-out: Minimal Inhibitory Conc. (MIC)
Pellicularia filamentosa = assay: as above; type: cell-based; conditions: read-out: Minimal Inhibitory Conc. (MIC)
[18] = tested on: Xanthomonas campestris pv. citri; assay: as above; type: cell-based; conditions: read-out: Minimal Inhibitory Conc. (MIC)
Erwinia carotovora = assay: as above; type: cell-based; conditions: Pectobacterium carotovorum, read-out: Minimal Inhibitory Conc. (MIC)
Cochliobolus miyabeanus = assay: as above; type: cell-based; conditions: Bipolaris oryzae, read-out: Minimal Inhibitory Conc. (MIC)
[19] = tested on: Xanthomonas campestris pv. oryzae; assay: microbe, parasite or virus in culture; type: cell-based; conditions: read-out: Minimal Inhibitory Conc. (MIC)
Gibberella fujikuroi = assay: Antibacterial and Antifungal Activities (in Agricultural Field), MIC; type: cell-based; conditions: Fusarium fujikuroi, read-out: Minimal Inhibitory Conc. (MIC)
Glomerella cingulata = assay: as above; type: cell-based; conditions: Colletotrichum gloeosporioides, read-out: Minimal Inhibitory Conc. (MIC)
[20] = tested on: Trichophyton mentagrophytes; assay: Therapeutic experiment on trichophytosis in guinea pigs, visual observation; type: in vivo, guinea pigs (White Hartly-strain); conditions: 1% preparation, 0.25 ml once per day, 8 consecutive days
[21] = tested on: Trichophyton mentagrophytes; assay: Reducing culture positive rate of skin slices from infected guinea pigs; type: in vivo, guinea pigs (White Hartly-strain); design: concentration or dose not given beside the values; conditions: after 8 days application, non-treated 100
[22] = Trichophyton metagrophytes 530324, read-out: Minimal Inhibitory Conc. (MIC)
[23] = GA24, Candida alubicans GA-24, read-out: Minimal Inhibitory Conc. (MIC)

For `Cc1nnnn1CC(I)=C(I)I` [1-(2',3',3'-triiodoallyl)-5-methyltetrazole], which MIC [1, 22] is on record?
Its MIC is 0.78 µg/mL (≈ 1.55 µM).

And the MIC (Candida alubicans GA-24; [23])?
The MIC was 3.12 µg/mL (≈ 6.22 µM).

What about the MIC [2] of the same molecule?
The MIC was 0.78 µg/mL (≈ 1.55 µM).

What about the MIC [3] of the same molecule?
Its MIC is 6.25 µg/mL (≈ 12.5 µM).

And the MIC [4]?
The MIC was 0.78 µg/mL (≈ 1.55 µM).

For `IC#CCn1ncnn1` [2-(1'-iodopropyn-3'-yl)tetrazole], which MIC (Mucor spinescens IAM Mu3) is on record?
The MIC was 3.13 µg/mL (≈ 13.4 µM).

What about the MIC [5] of the same molecule?
Its MIC is 25 µg/mL (≈ 107 µM).

What about the MIC ([1]; Trichophyton, 530324, read-out: Minimal Inhibitory Conc. (MIC)) of the same molecule?
The MIC was 1.56 µg/mL (≈ 6.67 µM).

And the MIC (Candida alubicans GA-24; Candida, GA24, read-out: Minimal Inhibitory Conc. (MIC))?
Its MIC is 3.12 µg/mL (≈ 13.3 µM).

What about the MIC [6] of the same molecule?
Its MIC is 0.78 µg/mL (≈ 3.33 µM).

And the MIC [7]?
Its MIC is 3.13 µg/mL (≈ 13.4 µM).

And the MIC ([8]; IAMF24, Pullularia pullulans IAM F-24, read-out: Minimal Inhibitory Conc. (MIC))?
Its MIC is 6.25 µg/mL (≈ 26.7 µM).

And the MIC [9]?
Its MIC is 6.25 µg/mL (≈ 26.7 µM).

What about the MIC [2] of the same molecule?
Its MIC is 1.56 µg/mL (≈ 6.67 µM).

And the MIC [10]?
The MIC was 3.13 µg/mL (≈ 13.4 µM).

What about the MIC [11] of the same molecule?
Its MIC is 3.13 µg/mL (≈ 13.4 µM).

What about the MIC [3] of the same molecule?
Its MIC is 0.78 µg/mL (≈ 3.33 µM).

What about the MIC [12] of the same molecule?
The MIC was 6.25 µg/mL (≈ 26.7 µM).

What about the MIC [13] of the same molecule?
The MIC was 25 µg/mL (≈ 107 µM).

And the MIC [4]?
The MIC was 1.56 µg/mL (≈ 6.67 µM).

`CC(=O)Nc1nnn(CC(I)=C(I)I)n1` [2-(2',3',3'-triiodoallyl)-5-acetylaminotetrazole] was tested. Which MIC [1, 22] did it give?
Its MIC is 3.12 µg/mL (≈ 5.73 µM).

And the MIC (Candida alubicans GA-24; [23])?
The MIC was 100 µg/mL (≈ 184 µM).

What about the MIC [2] of the same molecule?
Its MIC is 3.12 µg/mL (≈ 5.73 µM).

What about the MIC [3] of the same molecule?
Its MIC is 100 µg/mL (≈ 184 µM).

And the MIC [4]?
The MIC was 12.5 µg/mL (≈ 22.9 µM).

Which MIC (Mucor spinescens IAM Mu3) does the source give for `Cc1nnn(CC(I)=C(I)I)n1` [2-(2',3',3'-triiodoallyl)-5-methyltetrazole] here?
Its MIC is 1.56 µg/mL (≈ 3.11 µM).

And the MIC [5]?
Its MIC is 6.25 µg/mL (≈ 12.5 µM).

What about the MIC (Phricularia oryzae) of the same molecule?
Its MIC is 3.13 µg/mL (≈ 6.24 µM).

And the MIC [14]?
Its MIC is 0.78 µg/mL (≈ 1.55 µM).

What about the MIC [1, 22] of the same molecule?
Its MIC is 0.19 µg/mL (≈ 0.379 µM).

What about the MIC [15] of the same molecule?
Its MIC is 3.13 µg/mL (≈ 6.24 µM).

And the MIC (Botrytis cinerea)?
The MIC was 0.39 µg/mL (≈ 0.777 µM).

What about the MIC (Candida alubicans GA-24; [23]) of the same molecule?
The MIC was 0.78 µg/mL (≈ 1.55 µM).

What about the MIC [6] of the same molecule?
Its MIC is 0.39 µg/mL (≈ 0.777 µM).

What about the MIC [7] of the same molecule?
Its MIC is 6.25 µg/mL (≈ 12.5 µM).

What about the MIC [16] of the same molecule?
Its MIC is 25 µg/mL (≈ 49.8 µM).

What about the MIC ([8]; IAMF24, read-out: Minimal Inhibitory Conc. (MIC)) of the same molecule?
The MIC was 3.13 µg/mL (≈ 6.24 µM).

What about the MIC [9] of the same molecule?
Its MIC is 1.56 µg/mL (≈ 3.11 µM).

And the MIC [17]?
Its MIC is greater than 100 µg/mL.

And the MIC (Alternaria kikuchiana)?
The MIC was 1.56 µg/mL (≈ 3.11 µM).

And the MIC (Diaporithe citri)?
Its MIC is 0.78 µg/mL (≈ 1.55 µM).

And the MIC (Pellicularia filamentosa)?
The MIC was greater than 100 µg/mL.

What about the MIC [18] of the same molecule?
Its MIC is 50 µg/mL (≈ 99.6 µM).

And the MIC (Erwinia carotovora)?
Its MIC is greater than 100 µg/mL.

What about the MIC [2] of the same molecule?
Its MIC is 0.19 µg/mL (≈ 0.379 µM).

And the MIC (Cochliobolus miyabeanus)?
The MIC was 6.25 µg/mL (≈ 12.5 µM).

And the MIC [10]?
Its MIC is 6.25 µg/mL (≈ 12.5 µM).

What about the MIC [11] of the same molecule?
The MIC was 6.25 µg/mL (≈ 12.5 µM).

What about the MIC [3] of the same molecule?
Its MIC is 1.56 µg/mL (≈ 3.11 µM).

And the MIC [19]?
The MIC was 6.25 µg/mL (≈ 12.5 µM).

What about the MIC [12] of the same molecule?
The MIC was 1.56 µg/mL (≈ 3.11 µM).

What about the MIC [13] of the same molecule?
Its MIC is 1.56 µg/mL (≈ 3.11 µM).

And the MIC (Gibberella fujikuroi)?
The MIC was 0.78 µg/mL (≈ 1.55 µM).

And the MIC (Glomerella cingulata)?
The MIC was 0.39 µg/mL (≈ 0.777 µM).

What about the MIC [4] of the same molecule?
Its MIC is 0.19 µg/mL (≈ 0.379 µM).

What does the source list for `IC(I)=C(I)Cn1nnc(-c2ccccc2)n1` [2-(2',3',3'-triiodoallyl)-5-phenyltetrazole]?
MIC [1, 22]: 1.56 µg/mL (≈ 2.77 µM); MIC (Candida alubicans GA-24; [23]): 12.5 µg/mL (≈ 22.2 µM); MIC [2]: 3.12 µg/mL (≈ 5.53 µM); MIC [3]: 12.5 µg/mL (≈ 22.2 µM); MIC [4]: 6.25 µg/mL (≈ 11.1 µM)

With `Clc1ccccc1C(c1ccccc1)(c1ccccc1)n1ccnc1` [chlotrimazol, 1-(O-chloro-α,α-diphenylbenzyl)imidazole, reference compound] as the molecule, how does the “Therapeutic Effect: Desquamation” value [20] read?
The value was “effective”.

And the “Therapeutic Effect: Thickening” value [20]?
Its value is “effective”.

What about the “Reducing Culture Positive Rate” value ([21]; 3 days culture) of the same molecule?
Its value is 75%.

What about the “Reducing Culture Positive Rate” value ([21]; 5 days culture) of the same molecule?
The value was 96%.

And the “Reducing Culture Positive Rate” value ([21]; 7 days culture)?
The value was 96%.

What does the source list for `O=[N+]([O-])c1c(Cl)cccc1-c1c[nH]cc1Cl` [pyrrolnitrin, 3-chloro-4-(2'-nitro-3'-chlorophenyl)pyrrole, reference compound]?
Therapeutic Effect: Thickening [20]: effective; Reducing Culture Positive Rate ([21]; 3 days culture): 62%; Reducing Culture Positive Rate ([21]; 5 days culture): 87%; Reducing Culture Positive Rate ([21]; 7 days culture): 87%
